From ChEMBL document CHEMBL1143820, “Mutations in 16S rRNA and ribosomal protein S5 associated with high-level spectinomycin resistance in Pasteurella multocida” (2007) come the findings set out here.

What all share (assay type): functional
Assay [1] concerns Pasteurella multocida. Put plainly: Antibacterial activity against Pasteurella multocida isolate 2 with operon A,B,C,D,E,F 16S rRNA C1192G transversion mutation by CLSI M31-A2 method.
For assay [2], the system named is Pasteurella multocida. Put plainly: Antibacterial activity against Pasteurella multocida isolate 14 by CLSI M31-A2 method.
Assay [3] relates to Pasteurella multocida. Put plainly: Antibacterial activity against Pasteurella multocida isolate 10 with operon B,C 16S rRNA C1192G transversion mutation and S5 protein 32-SF-33>32I mutation by CLSI M31-A2 method.
Assay [4] concerns Pasteurella multocida. Put plainly: Antibacterial activity against Pasteurella multocida isolate 3 with operon A,B,C,D,E,F 16S rRNA C1192G transversion mutation by CLSI M31-A2 method.
The test system of assay [5] is Pasteurella multocida. Put plainly: Antibacterial activity against Pasteurella multocida isolate 16 by CLSI M31-A2 method.
In assay [6] the test system is Pasteurella multocida. Put plainly: Antibacterial activity against Pasteurella multocida isolate 12 with operon B,C 16S rRNA C1192G transversion mutation and S5 protein 32-SF-33>32I mutation by CLSI M31-A2 method.
In assay [7] the test system is Pasteurella multocida. Put plainly: Antibacterial activity against Pasteurella multocida isolate 11 with operon B,C 16S rRNA C1192G transversion mutation and S5 protein 32-SF-33>32I mutation by CLSI M31-A2 method.
Assay [8] deals with Pasteurella multocida. Put plainly: Antibacterial activity against Pasteurella multocida isolate 4 with operon A,B,C,D,E,F 16S rRNA C1192G transversion mutation by CLSI M31-A2 method.
For assay [9], the system named is Pasteurella multocida. Put plainly: Antibacterial activity against Pasteurella multocida isolate 6 with operon A,B,C,D,E 16S rRNA C1192G transversion mutation by CLSI M31-A2 method.
In assay [10] the test system is Pasteurella multocida. Put plainly: Antibacterial activity against Pasteurella multocida isolate 5 with operon A,B,C,D,E,F 16S rRNA C1192G transversion mutation by CLSI M31-A2 method.
The subject of assay [11] is Pasteurella multocida. Put plainly: Antibacterial activity against Pasteurella multocida isolate 8 with operon A,B,C,D,E 16S rRNA C1192G transversion mutation by CLSI M31-A2 method.
Assay [12] relates to Pasteurella multocida. Put plainly: Antibacterial activity against Pasteurella multocida isolate 7 with operon A,B,C,D,E 16S rRNA C1192G transversion mutation by CLSI M31-A2 method.
For assay [13], the system named is Pasteurella multocida. Put plainly: Antibacterial activity against Pasteurella multocida isolate 13 with loss of 23K in S5 protein by CLSI M31-A2 method.
Assay [14] deals with Pasteurella multocida. Put plainly: Antibacterial activity against Pasteurella multocida isolate 15 by CLSI M31-A2 method.
Assay [15] has as its system Pasteurella multocida. Put plainly: Antibacterial activity against Pasteurella multocida isolate 17 by CLSI M31-A2 method.
The test system of assay [16] is Pasteurella multocida. Put plainly: Antibacterial activity against Pasteurella multocida isolate 1 with operon A,B,C,D,E,F 16S rRNA C1192G transversion mutation by CLSI M31-A2 method.
Assay [17] has as its system Pasteurella multocida. Put plainly: Antibacterial activity against Pasteurella multocida isolate 9 with operon B,C 16S rRNA C1192G transversion mutation and S5 protein 32-SF-33>32I mutation by CLSI M31-A2 method.

Each structure is given as a SMILES string. In brackets after ≈: the same amount, converted by molar mass.

As to `CN[C@@H]1[C@H](O)[C@H](NC)[C@H]2O[C@@]3(O)C(=O)C[C@@H](C)O[C@H]3O[C@@H]2[C@H]1O` [SPECTINOMYCIN], the minimal inhibitory concentration (MIC) against Pasteurella multocida [1] was more than 8190 µg/mL; in the assay on Pasteurella multocida [2], 16 µg/mL (≈ 0.0481 mM); against Pasteurella multocida [3] it was more than 8190 µg/mL; against Pasteurella multocida [4], more than 8190 µg/mL; against Pasteurella multocida [5], 16 µg/mL (≈ 0.0481 mM); in the assay with Pasteurella multocida [6], more than 8190 µg/mL. The minimal inhibitory concentration (MIC) against Pasteurella multocida [7] is more than 8190 µg/mL; against Pasteurella multocida [8], more than 8190 µg/mL; in the assay on Pasteurella multocida [9], 4100 µg/mL (≈ 12.3 mM); in the assay on Pasteurella multocida [10], more than 8190 µg/mL; with Pasteurella multocida [11] it was 4100 µg/mL (≈ 12.3 mM); in the assay on Pasteurella multocida [12], 8190 µg/mL (≈ 24.6 mM). The MIC in the assay on Pasteurella multocida [13] was 4100 µg/mL (≈ 12.3 mM); against Pasteurella multocida [14], 16 µg/mL (≈ 0.0481 mM); with Pasteurella multocida [15], 16 µg/mL (≈ 0.0481 mM); against Pasteurella multocida [16], more than 8190 µg/mL; in the assay on Pasteurella multocida [17], 4100 µg/mL (≈ 12.3 mM).

In general, MIC refers to the lowest concentration that inhibits growth of the organism. Read a high MIC as weaker potency.
